Test results published in patent US10405547B2, “Substituted cyclic amides as herbicides” (FMC Corporation, priority 2015, dated 2019).

Key:
Assay type in all cases: in vivo
[1] = test system: kochia (Kochia scoparia); experiment: Test A preemergence, kochia; settings: 0 to 100 scale (0 no effect, 100 complete control)
How it was run: (§1)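 Visual injury on a 0 to 100 scale, about 10 days post-spray in the greenhouse. Postemergence plants measured 2–10 cm at one to two leaves; preemergence pots received a directed soil spray. Soil was a loam–sand blend.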

[2] = test system: barnyardgrass (Echinochloa crus-galli); experiment: Test B flooded paddy test, barnyardgrass; settings: 250 g ai/ha, applied to paddy water, visual rating after 13 to 15 days, scale 0 (no effect) to 100 (complete control)
How it was run: (§2)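 Pots were flooded to 3 cm above the soil surface at treatment, compound applied directly to the paddy water, and that depth held throughout. Plants were kept in a greenhouse for 13 to 15 days, then visually rated against untreated controls.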

[3] = test system: barnyardgrass (Echinochloa crus-galli); experiment: Test A preemergence, barnyardgrass; settings: 0 to 100 scale (0 no effect, 100 complete control)
How it was run: as §1

[4] = test system: kochia (Kochia scoparia); experiment: Test A postemergence, kochia; settings: visual injury, 0 to 100 scale (0 no effect, 100 complete control), approximately 10 days
How it was run: as §1

[5] = test system: corn (Zea mays); experiment: Test A postemergence, corn; settings: visual injury, 0 to 100 scale (0 no effect, 100 complete control), approximately 10 days
How it was run: as §1

[6] = test system: ducksalad (Heteranthera limosa); experiment: Test B flooded paddy test, ducksalad; settings: 250 g ai/ha, applied to paddy water, visual rating after 13 to 15 days, scale 0 (no effect) to 100 (complete control)
How it was run: as §2

[7] = test system: barnyardgrass (Echinochloa crus-galli); experiment: Test A postemergence, barnyardgrass; settings: visual injury, 0 to 100 scale (0 no effect, 100 complete control), approximately 10 days
How it was run: as §1

[8] = test system: foxtail, giant (Setaria faberii); experiment: Test A postemergence, giant foxtail; settings: visual injury, 0 to 100 scale (0 no effect, 100 complete control), approximately 10 days
How it was run: as §1

[9] = test system: pigweed (Amaranthus retroflexus); experiment: Test A postemergence, pigweed; settings: visual injury, 0 to 100 scale (0 no effect, 100 complete control), approximately 10 days
How it was run: as §1

[10] = test system: ryegrass, Italian (Lolium multiflorum); experiment: Test A preemergence, Italian ryegrass; settings: 0 to 100 scale (0 no effect, 100 complete control)
How it was run: as §1

[11] = test system: wheat (Triticum aestivum); experiment: Test A postemergence, wheat; settings: visual injury, 0 to 100 scale (0 no effect, 100 complete control), approximately 10 days
How it was run: as §1

[12] = test system: galium (catchweed bedstraw, Galium aparine); experiment: Test A postemergence, galium; settings: visual injury, 0 to 100 scale (0 no effect, 100 complete control), approximately 10 days
How it was run: as §1

[13] = test system: blackgrass (Alopecurus myosuroides); experiment: Test A postemergence, blackgrass; settings: visual injury, 0 to 100 scale (0 no effect, 100 complete control), approximately 10 days
How it was run: as §1

[14] = test system: ryegrass, Italian (Lolium multiflorum); experiment: Test A postemergence, Italian ryegrass; settings: visual injury, 0 to 100 scale (0 no effect, 100 complete control), approximately 10 days
How it was run: as §1

[15] = test system: pigweed (Amaranthus retroflexus); experiment: Test A preemergence, pigweed; settings: 0 to 100 scale (0 no effect, 100 complete control)
How it was run: as §1

[16] = test system: foxtail, giant (Setaria faberii); experiment: Test A preemergence, giant foxtail; settings: 0 to 100 scale (0 no effect, 100 complete control)
How it was run: as §1

[17] = test system: rice (Oryza sativa); experiment: Test B flooded paddy test, rice; settings: 250 g ai/ha, applied to paddy water, visual rating after 13 to 15 days, scale 0 (no effect) to 100 (complete control)
How it was run: as §2

[18] = test system: ragweed (common ragweed, Ambrosia elatior); experiment: Test A postemergence, ragweed; settings: visual injury, 0 to 100 scale (0 no effect, 100 complete control), approximately 10 days
How it was run: as §1

[19] = test system: sedge, umbrella (small-flower umbrella sedge, Cyperus difformis); experiment: Test B flooded paddy test, umbrella sedge; settings: 250 g ai/ha, applied to paddy water, visual rating after 13 to 15 days, scale 0 (no effect) to 100 (complete control)
How it was run: as §2

[20] = test system: ragweed (common ragweed, Ambrosia elatior); experiment: Test A preemergence, ragweed; settings: 0 to 100 scale (0 no effect, 100 complete control)
How it was run: as §1

Structure (SMILES) | Plant response rating, Kochia ([1]; 125 g ai/ha) | Plant response rating, Kochia ([1]; 500 g ai/ha) | Plant response rating, Barnyardgrass (Flood) [2] | Plant response rating, Barnyardgrass ([3]; 125 g ai/ha) | Plant response rating, Barnyardgrass ([3]; 500 g ai/ha) | Plant response rating, Kochia ([4]; 125 g ai/ha) | Plant response rating, Kochia ([4]; 500 g ai/ha) | Plant response rating, Corn ([5]; 125 g ai/ha) | Plant response rating, Corn ([5]; 500 g ai/ha) | Plant response rating, Ducksalad (Flood) [6] | Plant response rating, Barnyardgrass ([7]; 125 g ai/ha) | Plant response rating, Barnyardgrass ([7]; 500 g ai/ha) | Plant response rating, Foxtail, Giant ([8]; 125 g ai/ha) | Plant response rating, Foxtail, Giant ([8]; 500 g ai/ha) | Plant response rating, Pigweed ([9]; 125 g ai/ha) | Plant response rating, Pigweed ([9]; 500 g ai/ha) | Plant response rating, Ryegrass, Italian ([10]; 125 g ai/ha) | Plant response rating, Ryegrass, Italian ([10]; 500 g ai/ha) | Plant response rating, Wheat ([11]; 125 g ai/ha) | Plant response rating, Wheat ([11]; 500 g ai/ha) | other results
O=C1NCC(c2cccc(OCC3CC3)c2)C1C(=O)Nc1cccc(F)c1F (stereo not drawn) [Compound 12] | 0 | 40 | 0 | 90 | 90 | 0 | 20 | 0 | 60 | 20 | 70 | 90 | 70 | 90 | 0 | 20 | 0 | 20 | 0 | 50 | Plant response rating, Galium ([12]; 125 g ai/ha): 0; Plant response rating, Galium ([12]; 500 g ai/ha): 50; Plant response rating, Blackgrass ([13]; 125 g ai/ha): 0; Plant response rating, Blackgrass ([13]; 500 g ai/ha): 60; Plant response rating, Ryegrass, Italian ([14]; 125 g ai/ha): 20; Plant response rating, Ryegrass, Italian ([14]; 500 g ai/ha): 50; Plant response rating, Pigweed ([15]; 125 g ai/ha): 0; Plant response rating, Pigweed ([15]; 500 g ai/ha): 30; Plant response rating, Foxtail, Giant ([16]; 125 g ai/ha): 90; Plant response rating, Foxtail, Giant ([16]; 500 g ai/ha): 90; Plant response rating, Rice (Flood) [17]: 0; Plant response rating, Ragweed ([18]; 125 g ai/ha): 30; Plant response rating, Ragweed ([18]; 500 g ai/ha): 30; Plant response rating, Sedge, Umbrella (Flood) [19]: 0; Plant response rating, Ragweed ([20]; 125 g ai/ha): 0; Plant response rating, Ragweed ([20]; 500 g ai/ha): 0
CC1(COc2cccc(C3CNC(=O)C3C(=O)Nc3ccccc3F)c2)COC1 (stereo not drawn) [Compound 14] | 0 | 0 | 0 | 10 | 80 | 0 | 0 | 0 | 0 | 70 | 10 | 60 | 10 | 70 | 0 | 0 | 0 | 0 | 0 | 0 | Plant response rating, Galium ([12]; 125 g ai/ha): 0; Plant response rating, Galium ([12]; 500 g ai/ha): 0; Plant response rating, Blackgrass ([13]; 125 g ai/ha): 0; Plant response rating, Blackgrass ([13]; 500 g ai/ha): 0; Plant response rating, Ryegrass, Italian ([14]; 125 g ai/ha): 0; Plant response rating, Ryegrass, Italian ([14]; 500 g ai/ha): 0; Plant response rating, Pigweed ([15]; 125 g ai/ha): 0; Plant response rating, Pigweed ([15]; 500 g ai/ha): 0; Plant response rating, Foxtail, Giant ([16]; 125 g ai/ha): 30; Plant response rating, Foxtail, Giant ([16]; 500 g ai/ha): 90; Plant response rating, Rice (Flood) [17]: 0; Plant response rating, Ragweed ([18]; 125 g ai/ha): 0; Plant response rating, Ragweed ([18]; 500 g ai/ha): 0; Plant response rating, Sedge, Umbrella (Flood) [19]: 20; Plant response rating, Ragweed ([20]; 125 g ai/ha): 0; Plant response rating, Ragweed ([20]; 500 g ai/ha): 0
